Assay results taken from patent publication US6544750B1, “Peptide analogs as selective inhibitors of thrombin activation of protease activated receptor 1” (Thromgen, Inc., priority 1999, dated 2003).
Ends that are not written are not given here.

Key:
[1] = target: biotin-NAT12 (NATLDPRSFLLR, peptide from PAR1) (Homo sapiens, UniProt P25116); experiment: Biotin-NAT12 binding assay to peptides coupled to microtiter plates; details: relative to RPPGF given arbitrary binding level of 1
Description: A third assay was developed to ascertain the ability of biotin-NAT12 (NATLDPRSFLLR, SEQ ID NO: 41) to directly bind to peptides linked to microtiter plates. In this assay, peptide analogs were linked to microtiter plate cuvette wells by incubation of the peptide in 0.1 M Na2CO3, pH 9.6 buffer overnight at 4° C. After coupling the peptide to the cuvette well, the wells were dumped and each well was blocked with 1% bovine serun albumin in 0.01 M Na3PO4, 0.15 M NaCl, at pH 7.4. After incubation for 1 hour, the wells were dumped and washed three times with PBS-Tween. The wells were then incubated with biotin-NAT12. The amount of biotin-NAT12 bound was determined by adding streptavidin-peroxidase followed by adding turbo TMB (Pierce).
In decreasing order of binding level, these peptides include: RGKSC, RGKMC, RGKHC, RGKKC, RGKFC, RGKLC, RGKWC, and RGKVC (SEQ ID NOS 18, 7, 13, 14, 11, 1, 5 and 19, respectively). […] The best to least RGDO4C (SEQ ID NO: 44) peptides to bind biotin-NAT12 listed in Table VI are: RGDSC, RGDGC, RGDQC, RGDEC, RGDIC, RGDPC, RGDDC, and RGDYC (SEQ ID NOS 34, 28, 23, 22, 36, 38, 27 and 35, respectively). A solid phase peptide-peptide binding assay was used to determine biotin-NAT12 binding to library peptides. Test peptides in 0.1 M Na2CO3, pH 9.6 buffer, at 10 μg/well in 50 μl volume, were coupled to microtiter plate wells by overnight incubation at 4° C. After incubation, the contents of the wells were discarded and the wells were washed with a pH 7.4 buffer containing 0.01 M Na3PO4, 0.15 M NaCl, and 0.01% Tween 20. After blocking each well with 1% radioimmunoassay grade bovine serum albumin, the linked peptides were incubated with 100 μl of 100 μM biotin-NAT12 for 1 hour at 37° C. After incubation, the contents of the wells were dumped and the wells were washed three times (100 μl/well each time) with the buffer identified above. Each well then was incubated with 100 μl of 2 μg/ml solution of Immuno-Pure streptoavidin horeseradish peroxidase conjugate (Pierce Chemical Co., […], Ill.) for 1 hour at room temperature. The contents of the wells were discarded and the wells were washed three times as described above. The wells were then incubated with 100 μl of peroxidase-specific fast reacting substrate, turbo-3,3′,5,5′-tetramethylbenzidine (turbo-TMB, Pierce) for 5 minutes at room temperature and the developing color reaction was stopped by the addition of 100 μof 1 M phosphoric acid. The absorbance was measured at 450 nm using a Microplate Auto Reader EL311 (Bio-Tek, Winooski, Vt.).

[2] = test system: Normal human lung fibroblasts (NHLF); experiment: α-thrombin-induced calcium mobilization in fibroblasts (fura-2); format: cell-based; details: 0.2 mM peptide; for Ca2+ % Inhibition At 0.2 mM Peptide: thrombin-induced calcium mobilization in fibroblasts
Description: The second assay developed to assess peptides from the combinatorial libraries uses inhibition of α-thrombin-induced calcium mobilization in fibroblasts. Normal human lung fibroblasts (NHLF) were purchased from Clonetics, San Diego, Calif., an affiliate of Bio-Wittaker, Walkersville, Md. The cytoplasmic free Ca^2+ concentration ([Ca^2+]i) was measured using the fluorescent Ca^2+ indicator fura-2 (Molecular Probes, Inc., Eugene, Oreg.). Suspension of fibroblasts in Hepes-Tyrode's buffer were loaded with fura-2 by incubation at 37° C. with 2 μM fura-2/acetoxymethyl ester for 45 minutes according to the method of Rasmussen et al., J. Biol. Chem. 268, 14322 (1993). The labeled fibroblasts were separated from excess probe by washing by centrifugation at 1000 rpm (180×g). Aliquots of the labeled fibroblasts were transferred into a quartz cuvette with a magnetic stirrer, which was then placed in a thennostatically controlled chamber at 37° C. in a fluorescence spectrophotometer (Perkin-Elmer LS50B spectrofluorometer, Chicago, Ill.). Reagents, test peptide (SEQ ID NO: 5) (from 0.2 mM to effective lower concentration), and α-thrombin (2-4 nM), were sequentially added directly to the cuvette. The excitation wavelengths varied between 340 and 380 nm. Fluorescence was measured by recording emitted light at 510 nm as reported by Fisher et al., Mol Pharm. 35, 195 (1989). The minimum emission was determined on a solubilized fibroblast sample in the presence of 10 mM EDTA; maximum emission was determined on the same sample with 10 mM Ca^2+ added. The intrafibroblast free Ca^2+ concentration was calculated by the method of Grykiewicz et al., J. Biol. Chem. 260, 3440 (1985). The ratio of the fluorescence readings was calculated as R=340/380 nm and processed according to the equation [Ca^2+]i=KD((R−Rmim)/Rmax−R)) (Sf2/Sb2) to determine the intrafibroblast free Ca^2+ concentration. The KD for fura-2 was assumed to be 224 nM. Rmax and Rmin are the maximum and minimum fluorescence ratios measured at the end of the experiment, respectively; Sf2 and Sb2 are the fluorescence values at 380 nm in the absence and presence of saturating [Ca 2+], respectively. The reaction was monitored for 3-5 minutes. […] In FIG. 4, peptide RGDWC (SEQ ID NO: 20) at 0.2 mM inhibited 31% of 4 nM α-thrombin-induced Ca^2+ mobilization in fibroblasts.

[3] = test system: platelets (platelet-rich plasma); experiment: γ-thrombin-induced platelet aggregation in platelet-rich plasma; format: cell-based, human; details: for Fold Increase in Aggregation Inhibition over RPPGF: RGDO4C sublibrary, γ-thrombin, compared to RPPGF at 0.2 mM
Description: Fresh whole blood was collected and mixed with 0.013 M sodium citrate and platelet-rich plasma was prepared according to the method of Meloni et al., J. Biol. Chem. 266, 6786 (1991). Platelet-rich plasma with a normalized platelet count between 2-2.5×10^8 platelets/ml was added to a cuvette of an aggregometer (Chronlog Corp., Havertown, Pa.), standardized using the protocol of Meloni et al., supra. Peptides to be examined were added to the cuvette and the mixture stabilized for a few moments. Once the baseline was stabilized, γ-thrombin (10-70 NM) (Haematologic Technologies, Essex Junction, Vt.) was added to determine the minimal concentration of the agonist necessary to achieve full platelet aggregation. All investigations with peptides were performed using threshold concentrations of γ-thrombin. Aggregation was allowed to proceed for 5 minutes before stopping. When ADP-induced platelet aggregation studies were performed, 1-5 μM ADP (Sigrna) was added to the cuvette containing platelet-rich plasma.

| Substance | Level of Binding to Biotin-NAT12 ([1]; RGDO4C sublibrary) | Ca2+ % Inhibition At 0.2 mM Peptide ([2]; RGDO4C sublibrary) | Fold Increase in Aggregation Inhibition over RPPGF [3] | Level of Binding to Biotin-NAT12 ([1]; RGKO4C sublibrary) | Ca2+ % Inhibition At 0.2 mM Peptide ([2]; RGKO4C sublibrary) | other results |
| --- | --- | --- | --- | --- | --- | --- |
| Arg-Gly-Asp-Trp-Cys (RGDWC-NH2) [peptide of the H-R-G-D-O4-C-NH2 sublibrary] | 0.374 | 31.9% | 31.7 fold |  |  | effect on thrombin-induced Ca2+ mobilization (in words) ([2]; 4 nM α-thrombin): almost had no effect; inhibition of α-thrombin-induced Ca2+ mobilization ([2]; 4 nM α-thrombin, fibroblasts): 31%; concentration down to which peptide inhibited γ-thrombin-induced platelet aggregation ([3]; 70 nM γ-thrombin): ≥ 25 µM; peptide concentration at which γ-thrombin-induced platelet aggregation returned ([3]; 70 nM γ-thrombin): 6.25 µM; peptide concentration that abolished (completely inhibited) γ-thrombin-induced platelet aggregation ([3]; 70 nM γ-thrombin, platelet-rich plasma): 0.2 mM |
| RGDAC: peptide of the H-R-G-D-O4-C-NH2 sublibrary (H-RGDAC-NH2) | 0.8 | 11% |  |  |  |  |
| RGDDC: peptide of the H-R-G-D-O4-C-NH2 sublibrary (H-RGDDC-NH2) | 1.11 | 8.9% | 7.5 fold |  |  |  |
| RGDEC: peptide of the H-R-G-D-O4-C-NH2 sublibrary (H-RGDEC-NH2) | 1.28 | 1.96% | 20 fold |  |  |  |
| RGDFC: peptide of the H-R-G-D-O4-C-NH2 sublibrary (H-RGDFC-NH2) | 0.671 | 30.3% | 25 fold |  |  |  |
| RGDGC: peptide of the H-R-G-D-O4-C-NH2 sublibrary (H-RGDGC-NH2) | 1.39 | 9.9% | 7.5 fold |  |  |  |
| RGDHC: peptide of the H-R-G-D-O4-C-NH2 sublibrary (H-RGDHC-NH2) | 0.759 | 9.9% | 14.8 fold |  |  |  |
| RGDIC: peptide of the H-R-G-D-O4-C-NH2 sublibrary (H-RGDIC-NH2) | 1.22 | 9.3% | 3.8 fold |  |  |  |
| RGDKC: peptide of the H-R-G-D-O4-C-NH2 sublibrary (H-RGDKC-NH2) | 0.67 | 28.1% | 7.5 fold |  |  |  |
| RGDLC: peptide of the H-R-G-D-O4-C-NH2 sublibrary (H-RGDLC-NH2) | 0.98 | 0% | 7.5 fold |  |  |  |
| RGDPC: peptide of the H-R-G-D-O4-C-NH2 sublibrary (H-RGDPC-NH2) | 1.12 | 4.13% |  |  |  |  |
| RGKAC: peptide of the H-R-G-K-O4-C-NH2 sublibrary (H-RGKAC-NH2) |  |  |  | 0.689 | 5.2% |  |
| RGKDC: peptide of the H-R-G-K-O4-C-NH2 sublibrary (H-RGKDC-NH2) |  |  |  | 0.82 | 26.7% |  |
| RGKEC: peptide of the H-R-G-K-O4-C-NH2 sublibrary (H-RGKEC-NH2) |  |  |  | 0.926 | 13.8% |  |
| RGKFC: peptide of the H-R-G-K-O4-C-NH2 sublibrary (H-RGKFC-NH2) |  |  |  | 1.5 | 2.74% |  |
| RGKGC: peptide of the H-R-G-K-O4-C-NH2 sublibrary (H-RGKGC-NH2) |  |  |  | 1.0 | 12.4% |  |
| RGKHC: peptide of the H-R-G-K-O4-C-NH2 sublibrary (H-RGKHC-NH2) |  |  |  | 2.1 | 31.2% |  |
| RGKKC: peptide of the H-R-G-K-O4-C-NH2 sublibrary (H-RGKKC-NH2) |  |  |  | 1.8 | 38.9% |  |
| RGKNC: peptide of the H-R-G-K-O4-C-NH2 sublibrary (H-RGKNC-NH2) |  |  |  | 1.2 | 0% |  |
| RGKPC: peptide of the H-R-G-K-O4-C-NH2 sublibrary (H-RGKPC-NH2) |  |  |  | 1.2 | 31.13% |  |
| RGKQC: peptide of the H-R-G-K-O4-C-NH2 sublibrary (H-RGKQC-NH2) |  |  |  | 0.374 | 28% |  |
| RGKSC: peptide of the H-R-G-K-O4-C-NH2 sublibrary (H-RGKSC-NH2) |  |  |  | 2.2 | 0.01% |  |
| RGKVC: peptide of the H-R-G-K-O4-C-NH2 sublibrary (H-RGKVC-NH2) |  |  |  | 1.2 | 17.3% |  |
